Laboratory results from patent US20090042964A1, “AMINO-5-[SUBSTITUTED-4-(DIFLUOROMETHOXY)PHENYL]-5-PHENYLIMIDAZOLONE COMPOUNDS AS BETA-SECRETASE INHIBITORS” (Wyeth, priority 2007, published 2009).
Like-named read-outs stand apart in the source and are kept apart here.

Molecular target: human BACE1 (Homo sapiens, UniProt P56817)
Assay: Fluorescent kinetic assay, evaluation of BACE1 binding affinity of test compounds
Type: biochemical
Conditions: 10 nM human BACE1, 25 μM substrate WABC-6, pH 4.5, room temperature
Procedure: Concentration is determined by absorbance at 354 nm using an extinction coefficient of 18172 M^-1 cm^-1, the concentration of stock substrate is corrected, and the substrate stock stored in small aliquots in -80° C. […] Determination of Stock Enzyme Concentration: the stock concentration of each enzyme is determined by absorbance at 280 nm using an of 64150 M^-1 cm^-1 for hBACE1 and MuBACE1, 62870 M^-1 cm^-1 for hBACE2 in 6 M Guanidinium Hydrochloride (from Research Organics, Cat. # 5134G-2), pH 6. […] Biochem. 182, 319-326). Dilution and mixing steps: total reaction volume: 100 μL 2× inhibitor dilutions in buffer A (66.7 mM Na-Acetate, pH 4.5, 0.0667% CHAPS) were prepared, 4× enzyme dilution in buffer A (66.7 mM Na-Acetate, pH 4.5, 0.0667% CHAPS) were prepared, 100 μM substrate dilution in 1×PBS was prepared, and 50 μL 2× Inhibitor, 25 μL 100 μM substrate are added to each well of 96-well plate (from DYNEX Technologies, VWR #: 11311-046), immediately followed by 25 μL 4× enzyme (added to the inhibitor and substrate mix), and the fluorescence readings are initiated.

Chain of human BACE1 (P56817 46-501): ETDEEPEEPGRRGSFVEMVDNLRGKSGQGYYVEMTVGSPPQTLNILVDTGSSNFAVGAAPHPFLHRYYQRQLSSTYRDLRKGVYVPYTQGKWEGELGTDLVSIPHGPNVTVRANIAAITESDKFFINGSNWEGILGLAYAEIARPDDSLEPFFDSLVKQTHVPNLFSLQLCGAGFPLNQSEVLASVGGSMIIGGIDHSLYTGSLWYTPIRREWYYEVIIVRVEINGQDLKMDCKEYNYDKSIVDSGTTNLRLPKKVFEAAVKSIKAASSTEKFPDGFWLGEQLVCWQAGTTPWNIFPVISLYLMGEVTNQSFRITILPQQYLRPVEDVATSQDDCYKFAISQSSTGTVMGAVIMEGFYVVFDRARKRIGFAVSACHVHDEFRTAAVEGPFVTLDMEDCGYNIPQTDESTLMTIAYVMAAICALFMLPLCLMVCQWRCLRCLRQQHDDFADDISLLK

| SMILES | IC50 (read-out: BACE1 IC50) | IC50 (BACE1 IC50 μM) |
| --- | --- | --- |
| CN1C(=O)C(c2cccc(C3CC3)c2)(c2ccc(OC(F)F)c(C3CC3)c2)N=C1N (stereo not shown) [Example 187, 2-amino-4-(3-cyclopropyl-4-(difluoromethoxy)phenyl)-4-(3-cyclopropylphenyl)-1-methyl-1H-imidazol-5(4H)-one] | 0.11 to 1 µM |  |
| CN1C(=O)C(c2cccc(OCCCF)c2)(c2ccc(OC(F)F)c(Cl)c2)N=C1N (stereo not shown) [Example 40, 2-Amino-5-[3-chloro-4-(difluoromethoxy)phenyl]-5-[3-(3-fluoropropoxy)phenyl]-3-methyl-3,5-dihydro-4H-imidazol-4-one] | < 0.1 µM |  |
| CCC#Cc1cc(C2(c3ccc(OC(F)F)c(CCF)c3)N=C(N)N(C)C2=O)ccc1F (stereo not shown) [Example 89, 2-amino-5-(3-but-1-yn-1-yl-4-fluorophenyl)-5-[4-(difluoromethoxy)-3-(2-fluoroethyl)phenyl]-3-methyl-3,5-dihydro-4H-imidazol-4-one] | < 0.1 µM |  |
| CN1C(=O)[C@](c2ccc(F)c(OCCCF)c2)(c2ccc(OC(F)F)c(C3CC3)c2)N=C1N (single isomer, unassigned) [Example 86] | < 0.1 µM |  |
| Cc1cc(C2(c3cccc(OCCC(F)F)c3)N=C(N)N(C)C2=O)ccc1OC(F)F (stereo not shown) [Example 126, 2-Amino-5-[4-(difluoromethoxy)-3-methylphenyl]-5-[3-(3,3-difluoropropoxy)phenyl]-3-methyl-3,5-dihydro-4H-imidazol-4-one] | < 0.1 µM |  |
| COCC#Cc1cccc(C2(c3ccc(OC(F)F)c(C4CC4)c3)N=C(N)N(C)C2=O)c1 (stereo not shown) [Example 180, 2-amino-4-(3-cyclopropyl-4-(difluoromethoxy)phenyl)-4-(3-(3-methoxyprop-1-ynyl)phenyl)-1-methyl-1H-imidazol-5(4H)-one] | < 0.1 µM |  |
| CCc1cc([C@@]2(c3ccc(F)c(OCC(F)F)c3)N=C(N)N(C)C2=O)ccc1OC(F)F [Example 118, (5S)-2-Amino-5-[3-(2,2-difluoroethoxy)-4-fluorophenyl]-5-[4-(difluoromethoxy)-3-ethylphenyl]-3-methyl-3,5-dihydro-4H-imidazol-4-one] | > 1 µM |  |
| CCc1cc([C@@]2(c3ccc(F)c(C#CC(C)C)c3)N=C(N)N(C)C2=O)ccc1OC(F)F [Example 155, (5S)-2-Amino-5-[4-(difluoromethoxy)-3-ethylphenyl]-5-[4-fluoro-3-(3-methylbut-1-yn-1-yl)phenyl]-3-methyl-3,5-dihydro-4H-imidazol-4-one] | 0.11 to 1 µM |  |
| Cc1cc([C@@]2(c3cccc(OCCC(F)F)c3)N=C(N)N(C)C2=O)ccc1OC(F)F [Example 128, (5S)-2-Amino-5-[4-(difluoromethoxy)-3-methylphenyl]-5-[3-(3,3-difluoropropoxy)phenyl]-3-methyl-3,5-dihydro-4H-imidazol-4-one] | 0.11 to 1 µM |  |
| CCc1cc([C@]2(c3ccc(F)c(C#CCOC)c3)N=C(N)N(C)C2=O)ccc1OC(F)F [Example 156, (5R)-2-Amino-5-[4-(difluoromethoxy)-3-ethylphenyl]-5-[4-fluoro-3-(3-methoxyprop-1-yn-1-yl)phenyl]-3-methyl-3,5-dihydro-4H-imidazol-4-one] | < 0.1 µM |  |
| Cc1cc([C@@]2(c3cccc(C#CCCF)c3)N=C(N)N(C)C2=O)ccc1OC(F)F [Example 204, (5R)-2-amino-5-[4-(difluoromethoxy)-3-methylphenyl]-5-[3-(4-fluorobut-1-yn-1-yl)phenyl]-3-methyl-3,5-dihydro-4H-imidazol-4-one] | > 1 µM |  |
| CCc1cc([C@@]2(c3ccc(F)c(OCCCF)c3)N=C(N)N(C)C2=O)ccc1OC(F)F [Example 121, (5S)-2-Amino-5-[4-(difluoromethoxy)-3-ethylphenyl]-5-[4-fluoro-3-(3-fluoropropoxy)phenyl]-3-methyl-3,5-dihydro-4H-imidazol-4-one] | > 1 µM |  |
| Cc1cc(C2(c3cccc(OCC(F)F)c3)N=C(N)N(C)C2=O)ccc1OC(F)F (stereo not shown) [Example 43, 2-Amino-5-[3-(2,2-difluoroethoxy)phenyl]-5-[4-(difluoromethoxy)-3-methylphenyl]-3-methyl-3,5-dihydro-4H-imidazol-4-one] | < 0.1 µM |  |
| Cc1cc(C2(c3ccc(F)c(C#CCCF)c3)N=C(N)N(C)C2=O)ccc1OC(F)F (stereo not shown) [Example 203, 2-amino-5-[4-(difluoromethoxy)-3-methylphenyl]-5-[4-fluoro-3-(4-fluorobut-1-yn-1-yl)phenyl]-3-methyl-3,5-dihydro-4H-imidazol-4-one] | < 0.1 µM |  |
| Cc1cc([C@@]2(c3ccc(F)c(OCC4CC4)c3)N=C(N)N(C)C2=O)ccc1OC(F)F [Example 107, (5S)-2-Amino-5-[3-(cyclopropylmethoxy)-4-fluorophenyl]-5-[4-(difluoromethoxy)-3-methylphenyl]-3-methyl-3,5-dihydro-4H-imidazol-4-one] | > 1 µM |  |
| CN1C(=O)[C@](c2ccc(F)c(OCC(F)F)c2)(c2ccc(OC(F)F)c(C3CC3)c2)N=C1N [Example 125, (5R)-2-Amino-5-[3-cyclopropyl-4-(difluoromethoxy)phenyl]-5-[3-(2,2-difluoroethoxy)-4-fluorophenyl]-3-methyl-3,5-dihydro-4H-imidazol-4-one] | < 0.1 µM |  |
| CN1C(=O)[C@](c2cccc(C#CCCCF)c2)(c2ccc(OC(F)F)c(C3CC3)c2)N=C1N (single isomer, unassigned) [Example 192] | < 0.1 µM |  |
| CN1C(=O)[C@@](c2cccc(Br)c2)(c2ccc(OC(F)F)c(C3CC3)c2)N=C1N (single isomer, unassigned) [Example 166] | > 1 µM |  |
| CN1C(=O)[C@](c2ccc(F)c(C#CC3CC3)c2)(c2ccc(OC(F)F)c(CCF)c2)N=C1N (single isomer, unassigned) [Example 93] | < 0.1 µM |  |
| CCc1cc([C@]2(c3ccccc3)N=C(N)N(C)C2=O)ccc1OC(F)F [Example 23, (5S)-2-Amino-4-[4-(difluoromethoxy)-3-ethylphenyl]-1-methyl-4-phenyl-1H-imidazol-5(4H)-one] |  | < 0.1 µM |
| Cc1cc(C2(c3ccc(F)c(C#CC(C)C)c3)N=C(N)N(C)C2=O)ccc1OC(F)F (stereo not shown) [Example 48, 2-Amino-5-[4-(difluoromethoxy)-3-methylphenyl]-5-[4-fluoro-3-(3-methylbut-1-yn-1-yl)phenyl]-3-methyl-3,5-dihydro-4H-imidazol-4-one] | < 0.1 µM |  |
| CN1C(=O)C(c2ccccc2)(c2ccc(OC(F)F)c(CCF)c2)N=C1N (stereo not shown) [Example 74, 2-amino-5-[4-(difluoromethoxy)-3-(2-fluoroethyl)phenyl]-3-methyl-5-phenyl-3,5-dihydro-4H-imidazol-4-one] | 0.11 to 1 µM |  |
| CN1C(=O)C(c2ccc(F)c(C#CC3CC3)c2)(c2ccc(OC(F)F)c(CCF)c2)N=C1N (stereo not shown) [Example 92, 2-amino-5-[3-(cyclopropylethynyl)-4-fluorophenyl]-5-[4-(difluoromethoxy)-3-(2-fluoroethyl)phenyl]-3-methyl-3,5-dihydro-4H-imidazol-4-one] | < 0.1 µM |  |
| CN1C(=O)[C@@](c2ccc(F)c(OCCCF)c2)(c2ccc(OC(F)F)c(C3CC3)c2)N=C1N (single isomer, unassigned) [Example 87] | > 1 µM |  |
| CN1C(=O)[C@@](c2ccc(F)c(OCC(F)F)c2)(c2ccc(OC(F)F)c(C3CC3)c2)N=C1N [Example 124, (5S)-2-Amino-5-[3-cyclopropyl-4-(difluoromethoxy)phenyl]-5-[3-(2,2-difluoroethoxy)-4-fluorophenyl]-3-methyl-3,5-dihydro-4H-imidazol-4-one] | > 1 µM |  |
